Measured values taken from PubChem BioAssay (NCI).
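All cell lines were grown in 96-well plates and treated with compound for 48 hours. Abbreviation: GI50, concentration required for 50% inhibition of growth. The concentration for full growth arrest is given as TGI.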

What was measured:
Assay in all cases: inhibition of tumour cell growth, NCI panel, 48 h
HS 578T breast = system: HS 578T breast
SF-539 CNS = system: SF-539 CNS
UO-31 renal = system: UO-31 renal
NCI-H226 lung = system: NCI-H226 lung
IGROV1 ovarian = system: IGROV1 ovarian
SN12C renal = system: SN12C renal
OVCAR-4 ovarian = system: OVCAR-4 ovarian
U251 CNS = system: U251 CNS
MALME-3M melanoma = system: MALME-3M melanoma
HCC-2998 colon = system: HCC-2998 colon
K-562 leukemia = system: K-562 leukemia
786-0 renal = system: 786-0 renal
HT29 colon = system: HT29 colon
T-47D breast = system: T-47D breast
RXF 393 renal = system: RXF 393 renal
HOP-62 NSCLC = system: HOP-62 NSCLC
NCI-H522 lung = system: NCI-H522 lung
COLO 205 colon = system: COLO 205 colon
OVCAR-3 ovarian = system: OVCAR-3 ovarian
HOP-92 NSCLC = system: HOP-92 NSCLC
SF-295 CNS = system: SF-295 CNS
DU-145 prostate = system: DU-145 prostate
HCT-15 colon = system: HCT-15 colon
BT-549 breast = system: BT-549 breast
UACC-257 melanoma = system: UACC-257 melanoma
MDA-MB-231 breast = system: MDA-MB-231 breast
RPMI-8226 leukemia = system: RPMI-8226 leukemia
HCT-116 colon = system: HCT-116 colon
M14 melanoma = system: M14 melanoma
NCI/ADR-RES ovarian = system: NCI/ADR-RES ovarian
SW-620 colon = system: SW-620 colon
SNB-75 CNS = system: SNB-75 CNS
EKVX NSCLC = system: EKVX NSCLC
MOLT-4 leukemia = system: MOLT-4 leukemia
HL-60(TB) leukemia = system: HL-60(TB) leukemia
SR leukemia = system: SR leukemia
MDA-MB-435 = system: MDA-MB-435
OVCAR-5 ovarian = system: OVCAR-5 ovarian
NCI-H460 lung = system: NCI-H460 lung
UACC-62 melanoma = system: UACC-62 melanoma
ACHN renal = system: ACHN renal
OVCAR-8 ovarian = system: OVCAR-8 ovarian
SK-MEL-28 melanoma = system: SK-MEL-28 melanoma
CCRF-CEM leukemia = system: CCRF-CEM leukemia
CAKI-1 renal = system: CAKI-1 renal
SF-268 CNS = system: SF-268 CNS
SK-MEL-5 melanoma = system: SK-MEL-5 melanoma
SK-OV-3 ovarian = system: SK-OV-3 ovarian
LOX IMVI melanoma = system: LOX IMVI melanoma
A498 renal = system: A498 renal
MCF7 breast = system: MCF7 breast
KM12 colon = system: KM12 colon
A549 NSCLC = system: A549 NSCLC
SNB-19 CNS = system: SNB-19 CNS
SK-MEL-2 melanoma = system: SK-MEL-2 melanoma
TK-10 renal = system: TK-10 renal
PC-3 prostate = system: PC-3 prostate

## Cc1ccc(-c2nc(C(Cl)Cl)nc3cc(-c4ccccc4)nn23)cc1
HS 578T breast
  GI50: 56.9 µM
  TGI: > 100 µM
SF-539 CNS
  GI50: 61.1 µM
  TGI: > 100 µM
UO-31 renal
  GI50: > 100 µM
  TGI: > 100 µM
NCI-H226 lung
  GI50: 75.2 µM
  TGI: > 100 µM
IGROV1 ovarian
  GI50: 36.3 µM
  TGI: > 100 µM
SN12C renal
  GI50: 98.9 µM
  TGI: > 100 µM
OVCAR-4 ovarian
  GI50: 17.9 µM
  TGI: 73.1 µM
U251 CNS
  GI50: 9.5 µM
  TGI: 34.1 µM
MALME-3M melanoma
  GI50: 23.3 µM
  TGI: 58.9 µM
HCC-2998 colon
  GI50: 6.05 µM
  TGI: 20 µM
K-562 leukemia
  GI50: 22.4 µM
  TGI: > 100 µM
786-0 renal
  GI50: > 100 µM
  TGI: > 100 µM
HT29 colon
  GI50: 7.41 µM
  TGI: 35.2 µM
T-47D breast
  GI50: 28.3 µM
  TGI: > 100 µM
RXF 393 renal
  GI50: 10.6 µM
  TGI: 24 µM
HOP-62 NSCLC
  GI50: 16.5 µM
  TGI: 62.3 µM
NCI-H522 lung
  GI50: 14.5 µM
  TGI: 42.8 µM
COLO 205 colon
  GI50: 10.1 µM
  TGI: 23.4 µM
OVCAR-3 ovarian
  GI50: 13.4 µM
  TGI: 31.5 µM
HOP-92 NSCLC
  GI50: 23.9 µM
  TGI: 79.4 µM
SF-295 CNS
  GI50: 24 µM
  TGI: 71.2 µM
DU-145 prostate
  GI50: 4.21 µM
  TGI: 29.7 µM
HCT-15 colon
  GI50: 10.5 µM
  TGI: 72.3 µM
BT-549 breast
  GI50: 30.7 µM
  TGI: > 100 µM
UACC-257 melanoma
  GI50: 35.3 µM
  TGI: > 100 µM
MDA-MB-231 breast
  GI50: 20.5 µM
  TGI: > 100 µM
RPMI-8226 leukemia
  GI50: 35.9 µM
  TGI: > 100 µM
HCT-116 colon
  GI50: 15.6 µM
  TGI: > 100 µM
M14 melanoma
  GI50: 20.6 µM
  TGI: 50.2 µM
NCI/ADR-RES ovarian
  GI50: 13.5 µM
  TGI: > 100 µM
SW-620 colon
  GI50: 9.97 µM
  TGI: 55.8 µM
SNB-75 CNS
  GI50: > 100 µM
  TGI: > 100 µM
EKVX NSCLC
  GI50: 17.8 µM
  TGI: 57.8 µM
MOLT-4 leukemia
  GI50: 18.2 µM
  TGI: 96.7 µM
HL-60(TB) leukemia
  GI50: 6.5 µM
  TGI: > 100 µM
SR leukemia
  GI50: 9.91 µM
  TGI: > 100 µM
MDA-MB-435
  GI50: 25.3 µM
  TGI: 98 µM
OVCAR-5 ovarian
  GI50: 24.2 µM
  TGI: > 100 µM
NCI-H460 lung
  GI50: 7.26 µM
  TGI: 30.3 µM
UACC-62 melanoma
  GI50: 81.8 µM
  TGI: > 100 µM
ACHN renal
  GI50: 7.54 µM
  TGI: 31.8 µM
OVCAR-8 ovarian
  GI50: 15.3 µM
  TGI: 90.1 µM
SK-MEL-28 melanoma
  GI50: 27.2 µM
  TGI: 74.6 µM
CCRF-CEM leukemia
  GI50: 47.7 µM
  TGI: > 100 µM
CAKI-1 renal
  GI50: 16.2 µM
  TGI: 58.3 µM
SF-268 CNS
  GI50: 24.6 µM
  TGI: > 100 µM
SK-MEL-5 melanoma
  GI50: > 100 µM
  TGI: > 100 µM
SK-OV-3 ovarian
  GI50: 20.9 µM
  TGI: 58.7 µM
LOX IMVI melanoma
  GI50: 22.4 µM
  TGI: > 100 µM
A498 renal
  GI50: 17.4 µM
  TGI: 38.9 µM
MCF7 breast
  GI50: 18.1 µM
  TGI: > 100 µM
KM12 colon
  GI50: 17.8 µM
  TGI: 66.4 µM
A549 NSCLC
  GI50: 10 µM
  TGI: 28.1 µM
SNB-19 CNS
  GI50: 19.7 µM
  TGI: > 100 µM
SK-MEL-2 melanoma
  GI50: > 100 µM
  TGI: > 100 µM
TK-10 renal
  GI50: 33.3 µM
  TGI: > 100 µM
PC-3 prostate
  GI50: 23.7 µM
  TGI: > 100 µM
